{"source": "patent US10253355B2", "about": "“Instrument and system for rapid microorganism identification and antimicrobial agent susceptibility testing” (Accelerate Diagnostics, Inc., priority 2015, dated 2019)", "key": {"[1]": {"test_system": "Staphylococcus aureus ATCC 29213", "assay": "AST QC assay on AD-1 instrument, QC isolate S. aureus ATCC 29213", "assay_type": "cell-based", "conditions": "for Result (MIC value): unit assumed; for Result (phenotypic positive/negative test): resistance phenotype", "excerpt": "(§1) The reportable range for the AST QC assay in some examples are adjusted such that the selected QC isolates have an MIC that is within the reportable range of the QC Assay. These extended ranges are only applied to QC testing and are not applied to AST assessment of patient samples. The process for assigning an MIC value to the QC organisms is the same or similar to that used for patient samples. […] This approach allows testing of, for example, CLSI recommended QC isolates without affecting the algorithms that are optimized around antimicrobial breakpoints. The algorithms used in ID QC or AST QC testing include those described above, for example, when the QC test samples are microbial isolates. For ID QC testing utilizing target microbial nucleic acids coupled to a bead, positive detection is achieved by comparing the cumulative count in the target (e.g., Green fluorescence channel) only against a threshold of objects that have brightness exceeding bead autofluorescence. Negative control detection is achieved by doing the same for eubacteria (e.g., Red fluorescence) channel only. For example, the number of bright red objects should not exceed a threshold in order to pass negative control.\nIn addition, the CLSI required QC isolates for the relevant antimicrobial resistance phenotype assays (MRSA/MSA, and MLSb) may also be tested. When following CLSI recommendations, routine testing of a designated susceptible isolate as well as testing of designated resistant isolates for each new lot and/or new shipment of reagent kits should be performed. These isolates, therefore, may be included in the QC Assay. For example, Cefoxitin may be tested with Staphylococcus aureus ATCC 29213 as the susceptible isolate and Staphylococcus aureus ATCC 43300 may be tested as the resistant isolate.\n(§2) The results of the identification assay drive antibiotic selection for antimicrobial susceptibility testing. The remaining samples undergo a pre-growth step to normalize growth rates during the approximately 1-hour FISH ID assay. The concentration of organisms in the purified inoculum was determined by repeating the quantitation process with a universal nucleic acid stain as previously described herein. […] Following cell immobilization, antimicrobial solutions in Mueller-Hinton agar were dispensed into the flowcells. Different antimicrobials were tested in separate flowcells, and only a single concentration of each antimicrobial was used. A growth control consisting of Mueller-Hinton agar without any antimicrobial was included for each run. A dark-field microscope and camera produced time-lapse images approximately every 10 minutes of progenitor cells growing into clones of daughter cells in each flowcell. The agar ensured daughter cells were immobilized and remained localized to each growing clone. Resistant clones grew while susceptible clones arrest or lyse over time (FIG. 90).\nCustom image analysis software assigned unique spatial XY coordinates to individual progenitor cells (FIG. 91), allowing each growing clone across a series of time-lapse images to be identified. The intensity of each clone can be used as a metric of clone mass in each image. By measuring over time, this metric was used to generate growth curves for each individual clone (FIG. 92). The pattern of cell responses was used to determine the susceptibility of the overall population. […]"}, "[2]": {"test_system": "Staphylococcus aureus ATCC 43300", "assay": "AST QC assay on AD-1 instrument, QC isolate S. aureus ATCC 43300", "assay_type": "cell-based", "conditions": "resistance phenotype", "excerpt": "as §1, with “For example, the number of bright red objects should not exceed a threshold in order to pass negative control.” left out\nThe results of the identification assay drive antibiotic selection for antimicrobial susceptibility testing. […] The concentration of organisms in the purified inoculum was determined by repeating the quantitation process with a universal nucleic acid stain as previously described herein. […]"}, "[3]": {"test_system": "methicillin-susceptible S. aureus (MSSA)", "assay": "Time-lapse imaging of isolates growing in cefoxitin (MSSA)", "assay_type": "cell-based", "conditions": "by 4.5 hours (FIG. 90)", "description": "as §2"}, "[4]": {"test_system": "methicillin-resistant S. aureus (MRSA)", "assay": "Time-lapse imaging of isolates growing in cefoxitin (MRSA)", "assay_type": "cell-based", "conditions": "by 4.5 hours (FIG. 90)", "description": "as §2"}, "[5]": {"test_system": "Staphylococcus aureus ATCC 29213", "conditions": "cited from earlier work"}, "[6]": {"test_system": "Staphylococcus aureus ATCC 43300", "conditions": "S. aureus ATCC 43300, cited from earlier work"}, "[7]": {"test_system": "Escherichia coli ATCC 35218", "assay": "AST QC assay on AD-1 instrument, QC isolate E. coli ATCC 35218", "assay_type": "cell-based", "conditions": "unit assumed", "excerpt": "as §1\nas §2, with “A dark-field microscope and camera produced time-lapse images approximately every 10 minutes of progenitor cells growing into clones of daughter cells in each flowcell. The agar ensured daughter cells were immobilized and remained localized to each growing clone. Resistant clones grew while susceptible clones arrest or lyse over time (FIG. 90).” left out"}, "Pseudomonas strains": {"test_system": "Pseudomonas strains", "assay": "Growth of Pseudomonas strains in nutrient-depleted vs standard Mueller-Hinton media with antibiotic, automated microscopy", "assay_type": "cell-based", "description": "A series of growth media was formulated with […] strength of standard Mueller-Hinton nutrients (3 g beef infusion 17.5 g casein hydrolysate, 1.5 g starch, the final product being pH adjusted to neutral at 25° C.) while maintaining the agar concentration at 0.94% in the culture media. The effect of this depleted-nutrient media formulation on bacterial cell growth was evaluated with more than 50 strains of Pseudomonas in the presence of a panel of beta-lactam antibiotics. Cells were imaged using automated microscopy as described above. […] FIGS. 85A-C plots the log of bacterial dark phase intensity versus time, which is proportional to measuring cell mass in culture. FIGS. 85D-F are a quantitative representation of the data presented in panels FIGS. 85A-C expressed as rate of bacterial cell division."}}, "note": "Like-named read-outs stand apart in the source and are kept apart here."}
{"compound": "Trimethoprim-Sulfamethoxazole", "values": [{"measurement": "Result (MIC value)", "setting": "[1]; AST only report (Table 10)", "value": 0.25, "unit": "µg/mL"}, {"measurement": "Result (MIC value)", "setting": "[1]; ID and AST report (Table 11)", "value": 0.25, "unit": "µg/mL"}]}
{"compound": "CO[C@@]1(NC(=O)Cc2cccs2)C(=O)N2C(C(=O)O)=C(COC(N)=O)CS[C@@H]21", "note": "[Cefoxitin]", "values": [{"measurement": "Result (phenotypic positive/negative test)", "setting": "[1]; AST only report (Table 10)", "value": "NEG"}, {"measurement": "Result (phenotypic positive/negative test)", "setting": "[1]; ID and AST report (Table 11)", "value": "NEG"}, {"measurement": "Result (phenotypic positive/negative test)", "setting": "[2]; AST only report (Table 10)", "value": "POS"}, {"measurement": "Result (phenotypic positive/negative test)", "setting": "[2]; ID and AST report (Table 11)", "value": "POS"}, {"measurement": "Clone growth in time-lapse images", "setting": "[3]", "value": "arrested or lysed"}, {"measurement": "Clone growth in time-lapse images", "setting": "[4]", "value": "continue to grow"}, {"measurement": "Organism QC Range (Positive/Negative phenotype)", "setting": "[5]; AST QC panel (Table 9), S. aureus ATCC 29213", "value": "Negative"}, {"measurement": "Expected (phenotypic positive/negative test)", "setting": "[5]; AST only report (Table 10), S. aureus ATCC 29213", "value": "NEG"}, {"measurement": "Expected (phenotypic positive/negative test)", "setting": "[5]; ID and AST report (Table 11), S. aureus ATCC 29213", "value": "NEG"}, {"measurement": "Organism QC Range (Positive/Negative phenotype)", "setting": "[6]; AST QC panel (Table 9)", "value": "Positive"}, {"measurement": "Expected (phenotypic positive/negative test)", "setting": "[6]; AST only report (Table 10)", "value": "POS"}, {"measurement": "Expected (phenotypic positive/negative test)", "setting": "[6]; ID and AST report (Table 11)", "value": "POS"}]}
{"compound": "CC[C@H]1OC(=O)[C@H](C)[C@@H](O[C@H]2C[C@@](C)(OC)[C@@H](O)[C@H](C)O2)[C@H](C)[C@@H](O[C@@H]2O[C@H](C)C[C@H](N(C)C)[C@H]2O)[C@](C)(O)C[C@@H](C)C(=O)[C@H](C)[C@@H](O)[C@]1(C)O", "note": "[Erythromycin]", "values": [{"measurement": "Result (MIC value)", "setting": "[1]; AST only report (Table 10)", "value": 0.6, "unit": "µg/mL"}, {"measurement": "Organism QC Range (MIC)", "setting": "[5]; AST QC panel (Table 9), CLSI recommended isolate S. aureus ATCC 29213, in µg/mL (unit assumed)", "value": "0.25-1"}, {"measurement": "Expected (MIC acceptance range)", "setting": "[5]; AST only report (Table 10), S. aureus ATCC 29213, in µg/mL (unit assumed)", "value": "0.25-1"}]}
{"compound": "Ampicillin-Sulbactam", "values": [{"measurement": "Result (MIC value)", "setting": "[7]; AST only report (Table 10)", "value": 16, "unit": "µg/mL"}]}
{"compound": "Piperacillin-Tazobactam", "values": [{"measurement": "Result (MIC value)", "setting": "[7]; AST only report (Table 10)", "value": 1, "unit": "µg/mL"}, {"measurement": "Result (MIC value)", "setting": "[7]; ID and AST report (Table 11)", "value": 1, "unit": "µg/mL"}, {"measurement": "Susceptibility of the bacteria", "setting": "Pseudomonas strains; Pseudomonas isolate of FIGS. 85A-F", "value": "susceptible"}, {"measurement": "Bacterial growth / replication pattern in presence of antibiotic", "setting": "Pseudomonas strains; nutrient-depleted media (approx. 87% reduction in Mueller-Hinton nutrients), within 3.5 hours", "value": "substantially impaired growth"}, {"measurement": "Antibiotic effect on filamentous cells", "setting": "Pseudomonas strains; standard Mueller-Hinton media, 2 to 3.5 hours of exposure", "value": "no discernable antibiotic effect"}]}
